From PMC7177757, “The Aquaporin-3-Inhibiting Potential of Polyoxotungstates” (International Journal of Molecular Sciences, 2020)

Tests used:
aquaporin-3 (AQP3) [1] = biological target: T1, aquaporin-3 (AQP3) (Homo sapiens, UniProt Q92482); assay: stopped-flow glycerol permeability in hRBCs; confirmed in yeast expressing human AQP3; type: cell-based; parameters: native AQP3 in human red blood cells (IC50); details: red blood cells
T1 sequence (Q92482 1-292): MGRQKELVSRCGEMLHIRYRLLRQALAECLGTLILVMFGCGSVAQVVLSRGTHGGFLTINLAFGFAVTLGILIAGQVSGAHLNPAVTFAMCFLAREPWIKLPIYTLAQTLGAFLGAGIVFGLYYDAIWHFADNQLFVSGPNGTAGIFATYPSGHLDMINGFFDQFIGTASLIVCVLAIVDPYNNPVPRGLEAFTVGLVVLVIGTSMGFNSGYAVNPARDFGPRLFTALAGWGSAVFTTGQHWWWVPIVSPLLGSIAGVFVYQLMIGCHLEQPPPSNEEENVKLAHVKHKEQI

aquaporin-3 (AQP3) [2] = biological target: T1, aquaporin-3 (AQP3); assay: stopped-flow glycerol permeability in hRBCs; type: cell-based; parameters: native AQP3 in human red blood cells; details: red blood cells

P2W18 showed an IC50 (aquaporin-3 (AQP3) [1]) of 0.8 ± 0.04 µM.
P5W30 gave an IC50 (aquaporin-3 (AQP3) [2]) of 3.24 ± 0.03 µM.
With P2W12 the IC50 (aquaporin-3 (AQP3) [2]) was 2.78 ± 0.09 µM.
